Test results: paper PMC7485140 (Clinical Pharmacology and Therapeutics, 2020)
Where two headings read alike, the source gives them in different places. Starred links: 1 amine or outer side, 2 acyl side, 3 side chain; linkers in the order of their positions; H or OH if unused. Positions of bridges follow the written chain, without caps; N, C: chain ends. Non-standard residues stand in square brackets, D forms with d. Residues, ends and D or L forms follow the SMILES beside them. *: point of attachment. pTerphenylCO(4''-OnC5H11) = CCCCCOc1ccc(-c2ccc(-c3ccc(C(=O)*)cc3)cc2)cc1; Orn(4R-OH,5R-OH) = O=C([C@H](C[C@@H](O)[C@@H](O)N[*:3])N[*:1])[*:2]; hTyr(3S-OH,4S-OH) = N[C@H](C(=O)O)[C@H](O)[C@@H](O)c1ccc(O)cc1; Pro(3S-OH,4S-Me) = C[C@H]1CN[C@H](C(=O)O)[C@H]1O; Hyp = O=C(O)[C@@H]1C[C@@H](O)CN1

What was measured:
[1] = Pooled population PK analysis of i.v. anidulafungin; assay type: in vivo, human; settings: patients aged 1 month to < 2 years, n = 23, i.v. LD/MD 3.0/1.5 mg/kg q.d., weight-corrected, final PK model; for Vd: Vss
[2] = adult patients with serious fungal infections; cited from earlier work
[3] = cited from earlier work
[4] = cited from earlier work; remark: listed apart in the source
[5] = infant patients at high risk for invasive fungal infections
[6] = neonatal patients at high risk for invasive fungal infections

Compound `CCCCCOc1ccc(-c2ccc(-c3ccc(C(=O)N[C@H]4C[C@@H](O)[C@@H](O)NC(=O)[C@@H]5[C@@H](O)[C@@H](C)CN5C(=O)[C@H]([C@@H](C)O)NC(=O)[C@H]([C@H](O)[C@@H](O)c5ccc(O)cc5)NC(=O)[C@@H]5C[C@@H](O)CN5C(=O)[C@H]([C@@H](C)O)NC4=O)cc3)cc2)cc1` [anidulafungin] ({pTerphenylCO(4''-OnC5H11)}-[Orn(4R-OH,5R-OH)]T[Hyp][hTyr(3S-OH,4S-OH)]T[Pro(3S-OH,4S-Me)]; lactam 1-C) has a clearance ([1]; human, plasma, iv, CL, Mean (SD), SD) of 0.35 mL/min/kg, a Vd ([1]; human, plasma, iv, Mean (SD), SD) of 0.77 L/kg and a Vd ([1]; human, plasma, iv, Median (range)) of 0.75 L/kg. For the same compound, the “CL, Median (range)” value [1] was 0.021 (0.006–0.032) L/hour/kg, the “mean CL” value [2] was 1.0 L/h and the “mean CL” value [3, 5] was 0.25 mL/min/kg. The “mean Vss” value [3, 5] was 0.9 L/kg, the “median AUCss” value [3, 5] was 97700 ng·h/mL and the “mean CL” value [3, 6] was 0.333 mL/min/kg. The “mean Vss” value [3, 6] was 1.7 L/kg, the “median AUCss” value [3, 6] was 74900 ng·h/mL and the “chemical stability in blood” value ([4]; blood at physiologic temperature and pH) was “slow chemical degradation”. The hepatic metabolism [4] was “not metabolized by the liver” and the “renal CL” value ([4]; negligible renal clearance) was under 1%.
